Assay results from US8007994B2, “Compositions and methods of modulating cholesterol metabolism” (The Board of Regents of the University of Texas System, priority 1998, dated 2011).
“Also recorded” adds a separate entry of the source. Like-named read-outs stand apart in the source and are kept apart here.

Legend:
ACAT-2 mRNA = test: Northern analysis of duodenal intestine samples, ACAT-2; type: in vivo, mouse; conditions: duodenum of treated mice, 10 days
Text: (§1) It is known that exogenous cholesterol is taken up in the distal duodenum (and perhaps proximal jejunum) by the intestinal enterocyte, is rapidly esterified (by ACAT) and packaged into chylomicrons for transport into the lymphatic system (reviewed by Homan and Krause, 1997). Recently, caveolin has also been proposed to play a role in cholesterol trafficking in the intestine (Field et al., 1998). Disruption of any of these processes could result in diminished cholesterol absorption capacity. As LG268 is an agonist of the nuclear hormone receptor RXR, it is likely that the primary targets of this drug would be transcriptionally regulated and show a change in the steady state level of mRNA for critical target genes. Northern analyses were performed on duodenal intestine samples obtained in the experiment described in FIG. 4. Results were quantitated using a phosphoimager (Molecular Dynamics), standardized against b-actin controls, and mathematically adjusted to yield 1 unit for the vehicle-treated control group.

cholesterol absorption [1] = test: Cholesterol absorption by the fecal isotope ratio method in hamsters; type: in vivo, Golden Syrian hamster; conditions: male hamsters, 0.2% cholesterol diet, 3 or 30 mg/kg body weight
Procedure: (§2) Hamsters provide a better animal model for cholesterol metabolism than mice (however, mice offer the advantage that they can be genetically manipulated, for example the LXRα−/− strain). […] Male Syrian Golden hamsters were fed Teklad 7001 diet supplemented with 0.2% cholesterol and vehicle, LG268 (providing 3 or 30 mg/kg body weight) or 2% surfomer. On day 7, they received a gavage dose of [22,23-3H]b-sitostanol (American Radiolabeled Chemicals, St. Louis, Mo.) and [4-14C]cholesterol (Amersham) for the measurement of cholesterol absorption by the fecal isotope ratio method (Turley et al., 1994). Stools were collected from the individually housed hamsters over the next 72 hours. On day 12 the animals were sacrificed and liver was removed for cholesterol determination by gas chromatography (Turley et al., 1994). […] Therefore the effects of LG268 on cholesterol homeostasis are not limited to mice, but observed in other mammalian species as well.

ACAT-1 mRNA = test: Northern analysis of duodenal intestine samples, ACAT-1; type: in vivo, mouse; conditions: duodenum of treated mice, 10 days
Text: as §1

bile acid production = test: Bile acid pool size and fecal bile acid excretion in cholesterol-fed mice; type: in vivo, mouse; conditions: LXRα +/+ and −/− mice, 2% cholesterol diet, 30 mg/kg oral gavage daily, 7 days
Procedure: Female, mixed strain (LXRα+/+ and −/−) mice were fed Teklad 7001 2% cholesterol (w/w) diet ad libitum for 7 days. Each day mice received a single bolus dose of LG268 ([…] to provide 30 mg/kg body weight) or vehicle by oral gavage. Mice were killed and liver cholesterol was determined as described in FIG. 1. Small intestine (with luminal contents) and gall bladder were extracted together to determine bile acid pool size and composition as described by Schwartz et al., 1998. Stools were collected over 3 days from the individually housed mice, dried, weighed and ground. Fecal bile acid content was determined by an enzymatic method (Turley et al., 1996).

RXR = conditions: cited from earlier work
[2] = test system: ATP-binding cassette protein-1 (ABC-1); test: Northern analysis of intestinal ABC-1 expression; type: in vivo; conditions: mouse small intestine, oral 30 mg/kg body weight, as little as 6 hours
Procedure: The ATP-binding cassette protein-1 is a newly described membrane protein implicated in reverse cholesterol transport, in other words the efflux of cholesterol from peripheral tissues to the liver (Young and Fielding, 1999; Tall, 1998).
Male A129 strain mice were fed Teklad 7001 powdered diet supplemented with 0.2% cholesterol and 0.015% LG268, equimolar LG721 (see example 12) or vehicle at 7 pm (beginning of dark cycle). Animals were sacrificed at 1 am (6 hour time point) or 7 am (12 hr), the intestine was removed and rinsed with ice-cold phosphate buffered saline, then subdivided into 5 segments of equal length (˜8 cm each, FIG. 10A) or 3 segments (the proximal segment representing the duodenumis depicted in FIG. 10B). Intestinal mucosa was obtained from each segment and poly (A+) RNA isolated for northern analyses. Results were quantified using a phosphorimager, standardized against b-actin controls, and mathematically adjusted to yield 1 unit for the vehicle-treated control group.

cholesterol biosynthesis = test: Rates of sterol synthesis in vivo ([3H]water incorporation); design: species or system mouse; conditions: mice, 0.2% cholesterol diet, 7 days
Procedure: Male, A129 mice were fed Teklad 7001 diet supplemented with 0.2% cholesterol and vehicle or LG268 (at 3 or 30 mg/kg body weight) for 7 days ad libitum. Rates of sterol synthesis were measured in vivo as described (Jeske and Dietschy, 1980, Turley et al., 1981) based on the incorporation of [^3H]water into digitonin-precipitable sterols over one hour.

caveolin mRNA = test: Northern analysis of duodenal intestine samples, caveolin; type: in vivo, mouse; conditions: duodenum of treated mice, 10 days
Text: as §1

liver cholesterol [3] = test: Liver cholesterol accumulation in cholesterol-fed LXRα wild-type and knockout mice; type: in vivo, mouse; conditions: 0.2% cholesterol diet, 30 mg/kg body weight in diet, 10 days
Procedure: Male, A129 strain mice (LXRα+/+ and −/−) were fed Teklad 7001 powdered diet supplemented with 0.2% cholesterol 0.015% LG268 (provides 30 mg/kg body weight), vehicle, or 2% surfomer (a surfactant polymer that inhibits cholesterol absorption, Turley et al., 1991) ad libitum for 10 days. Animals were sacrificed and a liver aliquot was saponified and extracted and the cholesterol content was determined by gas chromatography using stigmastanol as an internal standard (Turley et al., 1994). Liver cholesterol accumulation was prevented by ingestion of LG268 in both LXRα knockout and wild-type mice. The two most likely mechanisms for this effect are (1) increased cholesterol output by enhanced bile acid production and secretion and/or (2) decreased cholesterol input by diminished cholesterol absorption.
Male, A129 strain mice were fed Teklad 7001 powdered diet supplemented with 0.2% cholesterol and various levels of LG268 (providing 1.4 to 30 mg/kg body weight) or vehicle ad libitum for 10 days. […] Liver cholesterol concentration was determined as by gas chromatography.
Male, A129 strain mice were fed Teklad 7001 powdered diet supplemented with 0.2% cholesterol LG268 or LG721 (to provide 3 mg/kg body weight) ad libitum for 10 days. […] Liver cholesterol concentration was determined as by gas chromatography.

liver cholesterol [4] = test: Liver cholesterol in cholesterol-fed Golden Syrian hamsters; type: in vivo, Golden Syrian hamster; conditions: male hamsters, 0.2% cholesterol diet, 3 or 30 mg/kg body weight, 12 days
Procedure: as §2

cholesterol absorption [5] = test: Cholesterol absorption by the fecal isotope ratio method in mice; type: in vivo, mouse
Procedure: Male, A129 strain mice (LXRα+/+ and −/−) were fed Teklad 7001 powdered diet supplemented with 0.2% cholesterol 0.015% LG268 (provides 30 mg/kg body weight), vehicle, or 2% surfomer ad libitum for 10 days. On day 7, mice received a gavage dose of [22,23-3H]b-sitostanol (American Radiolabeled Chemicals, St. Louis, Mo.) and [4-14C]cholesterol (Amersham) for the measurement of cholesterol absorption by the fecal isotope ratio method (Turley et al., 1994). […] In light of the extreme potency of LG268, a dose-response analysis was performed.
(§3) Male, A129 strain mice were fed Teklad 7001 powdered diet supplemented with 0.2% cholesterol and various levels of LG268 (providing 1.4 to 30 mg/kg body weight) or vehicle ad libitum for 10 days. On day 7, mice received a gavage dose of [22,23-3H]b-sitostanol (American Radiolabeled Chemicals, St. Louis, Mo.) and [4-14C]cholesterol (Amersham) for the measurement of cholesterol absorption by the fecal isotope ratio method (Turley et al., 1994). Liver cholesterol concentration was determined as by gas chromatography.
as §3, with “cholesterol” for “cholesterol and various levels of”, “or LG721 (to provide 3” for “(providing 1.4 to 30”, “weight)” for “weight) or vehicle”

total lipid absorption = test: Total lipid absorption determined gravimetrically in mice; type: in vivo, mouse
Procedure: Total lipid absorption was determined in the study described above (FIG. 4) to establish whether LG268 effects were specific to cholesterol or were affecting lipid absorption or intestinal integrity. Total lipid absorption was determined gravimetrically (Schwartz et al., 1998) by establishing lipid intake (amount of food consumed over 72 hours×dietary lipid content) and lipid output (fecal lipid content×quantity of stool collected over the same 72 hours) to calculate the fraction of lipid consumed that was absorbed. […] The gravimetric determination of lipid absorption shown in FIG. 5 confirmed these findings. The reduction in lipid absorption seen in these animals can be accounted for by the reduction in cholesterol uptake (cholesterol comprises ˜5% of the lipid in these diets and is extracted and measured as lipid in these analyses). Therefore, the effects of LG268 are specific for cholesterol absorption.

Question: Which results are given for Cc1cc2c(cc1C1(c3ccc(C(=O)O)cn3)CC1)C(C)(C)CCC2(C)C [LG268]?
Answer: ACAT-2 mRNA level (ACAT-2 mRNA): No apparent change; cholesterol absorption (cholesterol absorption [1]): inhibiting cholesterol absorption; ACAT-1 mRNA level (ACAT-1 mRNA): No apparent change; liver cholesterol accumulation prevented via bile acid production (bile acid pool size and excretion) (bile acid production): did not prevent the liver accumulation by increasing bile acid production; RXR binding and activation (RXR): binds and activates RXR; RXR binding and activation (RXR; listed as LG100268): binds and activates all RXR subtypes; binding to other related nuclear receptors (RXR; selectivity): fails to exhibit binding; ABC-1 expression [2]: greatly increased; cholesterol biosynthesis (cholesterol biosynthesis; 3 or 30 mg/kg body weight): increased cholesterol biosynthesis; sterol synthesis in spleen, kidney and carcass (cholesterol biosynthesis; 3 or 30 mg/kg, dose-dependent): Increased synthesis; caveolin mRNA level (caveolin mRNA): No apparent change; liver cholesterol accumulation (liver cholesterol [3]): prevented; liver cholesterol (liver cholesterol [4]): effective in hamsters in reducing liver cholesterol; cholesterol absorption (cholesterol absorption [5]; LXRα +/+ and −/− mice, 0.2% cholesterol diet, 30 mg/kg body weight, 10 days, 30 mg/kg): completely inhibited; also recorded: total block in cholesterol absorption; inhibition of cholesterol absorption compared with 2% surfomer (cholesterol absorption [5]; mice, LG268 0.015% of diet, dose 130-fold lower than surfomer): more effective than surfomer; lowest effective dose preventing liver cholesterol accumulation by inhibiting cholesterol absorption (cholesterol absorption [5]; wild-type mice, 0.2% cholesterol diet, doses 1.4 to 30 mg/kg, 10 days): 1.4 mg/kg body weight; stool output (total lipid absorption; wild-type mice receiving LG268 in diet): normal; general lipid absorption (total lipid absorption; wild-type mice, 0.2% cholesterol diet, LG268 in diet, 10 days): not experiencing general lipid malabsorption or steattorhea; also recorded: unaffected
